Source: ChEMBL document CHEMBL5625277, “Systematical mutational analysis of teriparatide on anti-osteoporosis activity by alanine scanning” (Bioorg Med Chem Lett, 2024)

experiment: Cytotoxicity in pre-osteoblasts (unknown origin) assessed as cell death upto 5 uM by CCK8 assay; format: toxicity, cell-based; conditions: pre-osteoblast

Question: Which Activity does the source give for CC[C@H](C)[C@H](NC(=O)[C@H](CCC(=O)O)NC(=O)[C@H](CO)NC(=O)[C@@H](NC(=O)[C@H](CO)NC(C)=O)C(C)C)C(=O)N[C@@H](CCC(N)=O)C(=O)N[C@@H](CC(C)C)C(=O)N[C@@H](CCSC)C(=O)N[C@@H](Cc1cnc[nH]1)C(=O)N[C@@H](CC(N)=O)C(=O)N[C@@H](CC(C)C)C(=O)NCC(=O)N[C@@H](CCCCN)C(=O)N[C@@H](Cc1cnc[nH]1)C(=O)N[C@@H](CC(C)C)C(=O)N[C@@H](CC(N)=O)C(=O)N[C@@H](CO)C(=O)N[C@@H](CCSC)C(=O)N[C@@H](CCC(=O)O)C(=O)N[C@@H](CCCNC(=N)N)C(=O)N[C@H](C(=O)N[C@@H](CCC(=O)O)C(=O)N[C@@H](Cc1c[nH]c2ccccc12)C(=O)N[C@@H](CC(C)C)C(=O)N[C@@H](CCCNC(=N)N)C(=O)N[C@@H](CCCCN)C(=O)N[C@@H](CCCCN)C(=O)N[C@@H](CC(C)C)C(=O)N[C@@H](CCC(N)=O)C(=O)N[C@@H](CC(=O)O)C(=O)N[C@H](C(=O)N[C@@H](C)C(=O)N[C@@H](CC(N)=O)C(=O)N[C@@H](Cc1ccccc1)C(N)=O)C(C)C)C(C)C here?
Answer: Non-Toxic

Question: Which Activity does the source give for CC[C@H](C)[C@H](NC(=O)[C@H](CCC(=O)O)NC(=O)[C@H](CO)NC(=O)[C@@H](NC(=O)[C@H](CO)NC(C)=O)C(C)C)C(=O)N[C@@H](CCC(N)=O)C(=O)N[C@@H](CC(C)C)C(=O)N[C@@H](CCSC)C(=O)N[C@@H](Cc1cnc[nH]1)C(=O)N[C@@H](CC(N)=O)C(=O)N[C@@H](CC(C)C)C(=O)NCC(=O)N[C@@H](CCCCN)C(=O)N[C@@H](Cc1cnc[nH]1)C(=O)N[C@@H](CC(C)C)C(=O)N[C@@H](CC(N)=O)C(=O)N[C@@H](CO)C(=O)N[C@@H](CCSC)C(=O)N[C@@H](CCC(=O)O)C(=O)N[C@@H](CCCNC(=N)N)C(=O)N[C@H](C(=O)N[C@@H](CCC(=O)O)C(=O)N[C@@H](Cc1c[nH]c2ccccc12)C(=O)N[C@@H](CC(C)C)C(=O)N[C@@H](CCCNC(=N)N)C(=O)N[C@@H](C)C(=O)N[C@@H](CCCCN)C(=O)N[C@@H](CC(C)C)C(=O)N[C@@H](CCC(N)=O)C(=O)N[C@@H](CC(=O)O)C(=O)N[C@H](C(=O)N[C@@H](Cc1cnc[nH]1)C(=O)N[C@@H](CC(N)=O)C(=O)N[C@@H](Cc1ccccc1)C(N)=O)C(C)C)C(C)C here?
Answer: Non-Toxic

Question: Which Activity does the source give for CC[C@H](C)[C@H](NC(=O)[C@H](CCC(=O)O)NC(=O)[C@H](CO)NC(=O)[C@@H](NC(=O)[C@H](CO)NC(C)=O)C(C)C)C(=O)N[C@@H](CCC(N)=O)C(=O)N[C@@H](CC(C)C)C(=O)N[C@@H](C)C(=O)N[C@@H](Cc1cnc[nH]1)C(=O)N[C@@H](CC(N)=O)C(=O)N[C@@H](CC(C)C)C(=O)NCC(=O)N[C@@H](CCCCN)C(=O)N[C@@H](Cc1cnc[nH]1)C(=O)N[C@@H](CC(C)C)C(=O)N[C@@H](CC(N)=O)C(=O)N[C@@H](CO)C(=O)N[C@@H](CCSC)C(=O)N[C@@H](CCC(=O)O)C(=O)N[C@@H](CCCNC(=N)N)C(=O)N[C@H](C(=O)N[C@@H](CCC(=O)O)C(=O)N[C@@H](Cc1c[nH]c2ccccc12)C(=O)N[C@@H](CC(C)C)C(=O)N[C@@H](CCCNC(=N)N)C(=O)N[C@@H](CCCCN)C(=O)N[C@@H](CCCCN)C(=O)N[C@@H](CC(C)C)C(=O)N[C@@H](CCC(N)=O)C(=O)N[C@@H](CC(=O)O)C(=O)N[C@H](C(=O)N[C@@H](Cc1cnc[nH]1)C(=O)N[C@@H](CC(N)=O)C(=O)N[C@@H](Cc1ccccc1)C(N)=O)C(C)C)C(C)C here?
Answer: Non-Toxic

Question: For CC[C@H](C)[C@H](NC(=O)[C@H](CCC(=O)O)NC(=O)[C@H](CO)NC(=O)[C@@H](NC(=O)[C@H](CO)NC(C)=O)C(C)C)C(=O)N[C@@H](CCC(N)=O)C(=O)N[C@@H](CC(C)C)C(=O)N[C@@H](CCSC)C(=O)N[C@@H](Cc1cnc[nH]1)C(=O)N[C@@H](CC(N)=O)C(=O)N[C@@H](CC(C)C)C(=O)NCC(=O)N[C@@H](CCCCN)C(=O)N[C@@H](Cc1cnc[nH]1)C(=O)N[C@@H](CC(C)C)C(=O)N[C@@H](CC(N)=O)C(=O)N[C@@H](C)C(=O)N[C@@H](CCSC)C(=O)N[C@@H](CCC(=O)O)C(=O)N[C@@H](CCCNC(=N)N)C(=O)N[C@H](C(=O)N[C@@H](CCC(=O)O)C(=O)N[C@@H](Cc1c[nH]c2ccccc12)C(=O)N[C@@H](CC(C)C)C(=O)N[C@@H](CCCNC(=N)N)C(=O)N[C@@H](CCCCN)C(=O)N[C@@H](CCCCN)C(=O)N[C@@H](CC(C)C)C(=O)N[C@@H](CCC(N)=O)C(=O)N[C@@H](CC(=O)O)C(=O)N[C@H](C(=O)N[C@@H](Cc1cnc[nH]1)C(=O)N[C@@H](CC(N)=O)C(=O)N[C@@H](Cc1ccccc1)C(N)=O)C(C)C)C(C)C, which Activity is on record?
Answer: Non-Toxic

Question: For CC[C@H](C)[C@H](NC(=O)[C@H](CCC(=O)O)NC(=O)[C@H](CO)NC(=O)[C@@H](NC(=O)[C@H](CO)NC(C)=O)C(C)C)C(=O)N[C@@H](CCC(N)=O)C(=O)N[C@@H](CC(C)C)C(=O)N[C@@H](CCSC)C(=O)N[C@@H](Cc1cnc[nH]1)C(=O)N[C@@H](CC(N)=O)C(=O)N[C@@H](CC(C)C)C(=O)NCC(=O)N[C@@H](CCCCN)C(=O)N[C@@H](Cc1cnc[nH]1)C(=O)N[C@@H](CC(C)C)C(=O)N[C@@H](CC(N)=O)C(=O)N[C@@H](CO)C(=O)N[C@@H](CCSC)C(=O)N[C@@H](CCC(=O)O)C(=O)N[C@@H](CCCNC(=N)N)C(=O)N[C@H](C(=O)N[C@@H](CCC(=O)O)C(=O)N[C@@H](Cc1c[nH]c2ccccc12)C(=O)N[C@@H](CC(C)C)C(=O)N[C@@H](CCCNC(=N)N)C(=O)N[C@@H](CCCCN)C(=O)N[C@@H](CCCCN)C(=O)N[C@@H](CC(C)C)C(=O)N[C@@H](CCC(N)=O)C(=O)N[C@@H](CC(=O)O)C(=O)N[C@@H](C)C(=O)N[C@@H](Cc1cnc[nH]1)C(=O)N[C@@H](CC(N)=O)C(=O)N[C@@H](Cc1ccccc1)C(N)=O)C(C)C, which Activity is on record?
Answer: Non-Toxic

Question: Which Activity does the source give for CC[C@H](C)[C@H](NC(=O)[C@H](CCC(=O)O)NC(=O)[C@H](CO)NC(=O)[C@@H](NC(=O)[C@H](CO)NC(C)=O)C(C)C)C(=O)N[C@@H](CCC(N)=O)C(=O)N[C@@H](CC(C)C)C(=O)N[C@@H](CCSC)C(=O)N[C@@H](Cc1cnc[nH]1)C(=O)N[C@@H](C)C(=O)N[C@@H](CC(C)C)C(=O)NCC(=O)N[C@@H](CCCCN)C(=O)N[C@@H](Cc1cnc[nH]1)C(=O)N[C@@H](CC(C)C)C(=O)N[C@@H](CC(N)=O)C(=O)N[C@@H](CO)C(=O)N[C@@H](CCSC)C(=O)N[C@@H](CCC(=O)O)C(=O)N[C@@H](CCCNC(=N)N)C(=O)N[C@H](C(=O)N[C@@H](CCC(=O)O)C(=O)N[C@@H](Cc1c[nH]c2ccccc12)C(=O)N[C@@H](CC(C)C)C(=O)N[C@@H](CCCNC(=N)N)C(=O)N[C@@H](CCCCN)C(=O)N[C@@H](CCCCN)C(=O)N[C@@H](CC(C)C)C(=O)N[C@@H](CCC(N)=O)C(=O)N[C@@H](CC(=O)O)C(=O)N[C@H](C(=O)N[C@@H](Cc1cnc[nH]1)C(=O)N[C@@H](CC(N)=O)C(=O)N[C@@H](Cc1ccccc1)C(N)=O)C(C)C)C(C)C here?
Answer: Non-Toxic

Question: With CC[C@H](C)[C@H](NC(=O)[C@H](CCC(=O)O)NC(=O)[C@H](CO)NC(=O)[C@@H](NC(=O)[C@H](C)NC(C)=O)C(C)C)C(=O)N[C@@H](CCC(N)=O)C(=O)N[C@@H](CC(C)C)C(=O)N[C@@H](CCSC)C(=O)N[C@@H](Cc1cnc[nH]1)C(=O)N[C@@H](CC(N)=O)C(=O)N[C@@H](CC(C)C)C(=O)NCC(=O)N[C@@H](CCCCN)C(=O)N[C@@H](Cc1cnc[nH]1)C(=O)N[C@@H](CC(C)C)C(=O)N[C@@H](CC(N)=O)C(=O)N[C@@H](CO)C(=O)N[C@@H](CCSC)C(=O)N[C@@H](CCC(=O)O)C(=O)N[C@@H](CCCNC(=N)N)C(=O)N[C@H](C(=O)N[C@@H](CCC(=O)O)C(=O)N[C@@H](Cc1c[nH]c2ccccc12)C(=O)N[C@@H](CC(C)C)C(=O)N[C@@H](CCCNC(=N)N)C(=O)N[C@@H](CCCCN)C(=O)N[C@@H](CCCCN)C(=O)N[C@@H](CC(C)C)C(=O)N[C@@H](CCC(N)=O)C(=O)N[C@@H](CC(=O)O)C(=O)N[C@H](C(=O)N[C@@H](Cc1cnc[nH]1)C(=O)N[C@@H](CC(N)=O)C(=O)N[C@@H](Cc1ccccc1)C(N)=O)C(C)C)C(C)C as the molecule, how does the Activity read?
Answer: Non-Toxic

Question: For CC[C@H](C)[C@H](NC(=O)[C@H](CCC(=O)O)NC(=O)[C@H](CO)NC(=O)[C@@H](NC(=O)[C@H](CO)NC(C)=O)C(C)C)C(=O)N[C@@H](CCC(N)=O)C(=O)N[C@@H](CC(C)C)C(=O)N[C@@H](CCSC)C(=O)N[C@@H](Cc1cnc[nH]1)C(=O)N[C@@H](CC(N)=O)C(=O)N[C@@H](CC(C)C)C(=O)NCC(=O)N[C@@H](CCCCN)C(=O)N[C@@H](Cc1cnc[nH]1)C(=O)N[C@@H](CC(C)C)C(=O)N[C@@H](CC(N)=O)C(=O)N[C@@H](CO)C(=O)N[C@@H](CCSC)C(=O)N[C@@H](CCC(=O)O)C(=O)N[C@@H](CCCNC(=N)N)C(=O)N[C@H](C(=O)N[C@@H](CCC(=O)O)C(=O)N[C@@H](Cc1c[nH]c2ccccc12)C(=O)N[C@@H](CC(C)C)C(=O)N[C@@H](CCCNC(=N)N)C(=O)N[C@@H](CCCCN)C(=O)N[C@@H](CCCCN)C(=O)N[C@@H](CC(C)C)C(=O)N[C@@H](CCC(N)=O)C(=O)N[C@@H](CC(=O)O)C(=O)N[C@H](C(=O)N[C@@H](Cc1cnc[nH]1)C(=O)N[C@@H](CC(N)=O)C(=O)N[C@@H](C)C(N)=O)C(C)C)C(C)C, which Activity is on record?
Answer: Non-Toxic

Question: For CC[C@H](C)[C@H](NC(=O)[C@H](CCC(=O)O)NC(=O)[C@H](CO)NC(=O)[C@@H](NC(=O)[C@H](CO)NC(C)=O)C(C)C)C(=O)N[C@@H](CCC(N)=O)C(=O)N[C@@H](CC(C)C)C(=O)N[C@@H](CCSC)C(=O)N[C@@H](Cc1cnc[nH]1)C(=O)N[C@@H](CC(N)=O)C(=O)N[C@@H](CC(C)C)C(=O)NCC(=O)N[C@@H](CCCCN)C(=O)N[C@@H](Cc1cnc[nH]1)C(=O)N[C@@H](CC(C)C)C(=O)N[C@@H](CC(N)=O)C(=O)N[C@@H](CO)C(=O)N[C@@H](CCSC)C(=O)N[C@@H](CCC(=O)O)C(=O)N[C@@H](CCCNC(=N)N)C(=O)N[C@H](C(=O)N[C@@H](CCC(=O)O)C(=O)N[C@@H](Cc1c[nH]c2ccccc12)C(=O)N[C@@H](CC(C)C)C(=O)N[C@@H](C)C(=O)N[C@@H](CCCCN)C(=O)N[C@@H](CCCCN)C(=O)N[C@@H](CC(C)C)C(=O)N[C@@H](CCC(N)=O)C(=O)N[C@@H](CC(=O)O)C(=O)N[C@H](C(=O)N[C@@H](Cc1cnc[nH]1)C(=O)N[C@@H](CC(N)=O)C(=O)N[C@@H](Cc1ccccc1)C(N)=O)C(C)C)C(C)C, which Activity is on record?
Answer: Non-Toxic
